# According to patent US20240368120A1 (Terns Pharmaceuticals, Inc., priority 2023, published 2024):
# Molecular target: T1, human GLP-1R receptor (Homo sapiens, UniProt P43220)
# T1 construct: expressed in transfected cells
# Assay: GLP-1R low expression cell assay (cAMP TR-FRET, CHO-K1_hGLP-1Rlow_clone10 cells)
# Type: cell-based
# Details: for EC50: cAMP TR-FRET, 30 min at 25° C.
# Summary of the method: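 CHO-K1 cells stably expressing low surface human GLP-1R (clone10), 1,000 cells/well, exposed to 10-point 3-fold compound dilutions for 30 min at 25 °C. cAMP measured by TR-FRET (Eu-cAMP tracer/ULight-anti-cAMP, 15 min). EC50 from Hill fit of duplicate percent activation relative to a parallel GLP-1 control agonist.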
# [1] = maximum activation relative to control GLP-1 peptide agonist
# T1 sequence (P43220 24-463): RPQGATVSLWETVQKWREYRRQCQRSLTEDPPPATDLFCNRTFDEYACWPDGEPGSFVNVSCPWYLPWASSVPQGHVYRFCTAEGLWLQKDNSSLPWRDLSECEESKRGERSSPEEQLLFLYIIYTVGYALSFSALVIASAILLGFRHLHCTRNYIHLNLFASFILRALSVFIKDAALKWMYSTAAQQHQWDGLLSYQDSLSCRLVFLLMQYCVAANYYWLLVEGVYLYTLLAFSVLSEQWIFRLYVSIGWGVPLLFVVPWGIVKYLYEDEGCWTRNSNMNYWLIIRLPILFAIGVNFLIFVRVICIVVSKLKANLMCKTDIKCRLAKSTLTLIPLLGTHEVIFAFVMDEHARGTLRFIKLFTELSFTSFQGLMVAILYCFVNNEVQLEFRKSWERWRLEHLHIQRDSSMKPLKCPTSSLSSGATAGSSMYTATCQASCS
EC50 [nM],Emax [1] [%],GLP-1R Low Expression Cell Assay Emax (%) [1],Structure (SMILES)
< 10,> 85,,"N#Cc1ccc(COc2cccc(C3CCN(Cc4nc5c(O)cc(C(=O)O)cc5n4Cc4cncs4)CC3)n2)c(F)c1 [Compound 82, 2-((4-(6-((4-Cyano-2-fluorobenzyl)oxy)pyridin-2-yl)piperidin-1-yl)methyl)-4-hydroxy-1-(thiazol-5-ylmethyl)-1H-benzo[d]imidazole-6-carboxylic acid]"
> 1000,25 to 50,,"Cn1c(CN2CCC(c3cccc(COc4ccc(C#N)cc4F)n3)CC2)nc2c(OC(F)F)cc(C(=O)O)cc21 [Compound 130, 2-((4-(6-((4-Cyano-2-fluorophenoxy)methyl)pyridin-2-yl)piperidin-1-yl)methyl)-4-(difluoromethoxy)-1-methyl-1H-benzo[d]imidazole-6-carboxylic acid]"
> 1000,50 to 85,,"Cn1c(CN2CCC(c3cccc4c3O[C@H](c3ccc(Cl)cc3F)CO4)CC2)nc2c(OC(F)F)cc(C(=O)O)cc21 [Compound 335, (R)-2-((4-(3-(4-Chloro-2-fluorophenyl)-2,3-dihydrobenzo[b][1,4]dioxin-5-yl)piperidin-1-yl)methyl)-4-(difluoromethoxy)-1-methyl-1H-benzo[d]imidazole-6-carboxylic acid]"
> 1000,25 to 50,,"Cn1c(CN2CCC(c3cccc(OCc4ccc(Cl)cc4F)n3)CC2)nc2c(OC(F)F)cc(-c3nnc(C(F)(F)F)[nH]3)cc21 [Compound 232, 2-((4-(6-((4-Chloro-2-fluorobenzyl)oxy)pyridin-2-yl)piperidin-1-yl)methyl)-4-(difluoromethoxy)-1-methyl-6-(5-(trifluoromethyl)-4H-1,2,4-triazol-3-yl)-1H-benzo[d]imidazole]"
10 to 100,> 85,,"COc1cc(C(=O)O)nc2c1nc(CN1CCC(c3cccc(OCc4ccc(Cl)cc4F)n3)CC1)n2C [Compound 324, 2-((4-(6-((4-Chloro-2-fluorobenzyl)oxy)pyridin-2-yl)piperidin-1-yl)methyl)-7-methoxy-3-methyl-3H-imidazo[4,5-b]pyridine-5-carboxylic acid]"
100 to 1000,> 85,,"Cn1c(CN2CCC(c3cccc(OCc4ccc(C#N)cc4F)n3)CC2)nc2c(Oc3ccc(F)cc3)cc(C(=O)O)cc21 [Compound 352, 2-((4-(6-((4-Cyano-2-fluorobenzyl)oxy)pyridin-2-yl)piperidin-1-yl)methyl)-4-(4-fluorophenoxy)-1-methyl-1H-benzo[d]imidazole-6-carboxylic acid]"
10 to 100,> 85,,"COc1cc(C(=O)O)cc2c1nc(CN1CCC(c3cccc4c3O[C@H](c3ccc(C#N)cc3F)CO4)CC1)n2C [Compound 310, (R)-2-((4-(3-(4-cyano-2-fluorophenyl)-2,3-dihydrobenzo[b][1,4]dioxin-5-yl)piperidin-1-yl)methyl)-4-methoxy-1-methyl-1H-benzo[d]imidazole-6-carboxylic acid]"
100 to 1000,> 85,,"COc1cc(C(=O)O)cc2c1nc(CN1CCC(c3cccc(OCc4ccc(C#N)cc4F)n3)CC1)n2C(F)F [Compound 147, 2-((4-(6-((4-Cyano-2-fluorobenzyl)oxy)pyridin-2-yl)piperidin-1-yl)methyl)-1-(difluoromethyl)-4-methoxy-1H-benzo[d]imidazole-6-carboxylic acid]"
> 1000,> 85,,"COc1cc(C(=O)O)cc2c1nc([C@@H](C)N1CCC(c3cccc4c3O[C@@](C)(c3ccc(Cl)cn3)O4)CC1)n2C [Compound 97, 2-((R)-1-(4-((S)-2-(5-chloropyridin-2-yl)-2-methylbenzo[d][1,3]dioxol-4-yl)piperidin-1-yl)ethyl)-4-methoxy-1-methyl-1H-benzo[d]imidazole-6-carboxylic acid]"
100 to 1000,> 85,,"COc1cc(C(=O)O)cc2c1nc(CN1CCC(c3cccc4c3OC[C@@H](c3ccc(C#N)cc3F)O4)CC1)n2C [Compound 278, (R)-2-((4-(2-(4-Cyano-2-fluorophenyl)-2,3-dihydrobenzo[b][1,4]dioxin-5-yl)piperidin-1-yl)methyl)-4-methoxy-1-methyl-1H-benzo[d]imidazole-6-carboxylic acid]"
100 to 1000,> 85,,"Cn1c(CN2CC=C(c3cccc(OCc4ccc(Cl)cc4F)c3)CC2)nc2c(OC(F)F)cc(C(=O)O)cc21 [Compound 159, 2-((4-(3-((4-Chloro-2-fluorobenzyl)oxy)phenyl)-3,6-dihydropyridin-1(2H)-yl)methyl)-4-(difluoromethoxy)-1-methyl-1H-benzo[d]imidazole-6-carboxylic acid]"
10 to 100,> 85,,"Cn1c(CN2CCC(c3cccc(OCc4ccc(C(F)(F)F)cc4)n3)CC2)nc2c(OC(F)F)cc(C(=O)O)cc21 [Compound 203, 4-(difluoromethoxy)-1-methyl-2-((4-(6-((4-(trifluoromethyl)benzyl)oxy)pyridin-2-yl)piperidin-1-yl)methyl)-1H-benzo[d]imidazole-6-carboxylic acid]"
< 10,> 85,,"Cn1c(CN2CCC(c3cccc(OCc4ccc(Cl)cc4F)n3)CC2)nc2c(OCCF)cc(C(=O)O)cc21 [Compound 170, 2-((4-(6-((4-Chloro-2-fluorobenzyl)oxy)pyridin-2-yl)piperidin-1-yl)methyl)-4-(2-fluoroethoxy)-1-methyl-1H-benzo[d]imidazole-6-carboxylic acid]"
10 to 100,> 85,,"Cn1c(CN2CCC(c3cccc(OCc4ccc(C#N)cc4F)n3)CC2)nc2c(OC(F)(F)F)cc(C(=O)O)cc21 [Compound 125, 2-((4-(6-((4-Cyano-2-fluorobenzyl)oxy)pyridin-2-yl)piperidin-1-yl)methyl)-1-methyl-4-(trifluoromethoxy)-1H-benzo[d]imidazole-6-carboxylic acid]"
> 1000,< 25,,"O=C(O)c1ccc2nc(CN3CCC(c4cccc(OCc5ccc(Cl)cc5F)n4)CC3)c3c(c2c1)COCC3 [Compound 244, 5-((4-(6-((4-chloro-2-fluorobenzyl)oxy)pyridin-2-yl)piperidin-1-yl)methyl)-3,4-dihydro-1H-pyrano[4,3-c]quinoline-9-carboxylic acid]"
< 10,> 85,,"CC(F)Oc1cc(C(=O)O)cc2c1nc(CN1CCC(c3cccc(OCc4ccc(Cl)cc4F)n3)CC1)n2C (centres unmarked) [Compound 359, 2-((4-(6-((4-Chloro-2-fluorobenzyl)oxy)pyridin-2-yl)piperidin-1-yl)methyl)-4-(1-fluoroethoxy)-1-methyl-1H-benzo[d]imidazole-6-carboxylic acid]"
> 1000,> 85,,"C[C@H](c1nc2c(OC(F)F)cc(C(=O)O)cc2n1C)N1CCC(c2cccc(OCc3ccc(C#N)cc3F)n2)CC1 [Compound 122, (R)-2-(1-(4-(6-((4-Cyano-2-fluorobenzyl)oxy)pyridin-2-yl)piperidin-1-yl)ethyl)-4-(difluoromethoxy)-1-methyl-1H-benzo[d]imidazole-6-carboxylic acid]"
< 10,> 85,,"Cn1c(Cc2ccc(-c3cccc(OCc4ccc(C#N)cc4F)n3)cc2F)nc2c(OC(F)F)cc(C(=O)O)cc21 [Compound 120, 2-(4-(6-((4-Cyano-2-fluorobenzyl)oxy)pyridin-2-yl)-2-fluorobenzyl)-4-(difluoromethoxy)-1-methyl-1H-benzo[d]imidazole-6-carboxylic acid]"
10 to 100,> 85,,"CC(=O)Nc1cc(C(=O)O)cc2c1nc(CN1CCC(c3cccc(OCc4ccc(C#N)cc4F)n3)CC1)n2C [Compound 116, 4-acetamido-2-((4-(6-((4-cyano-2-fluorobenzyl)oxy)pyridin-2-yl)piperidin-1-yl)methyl)-1-methyl-1H-benzo[d]imidazole-6-carboxylic acid]"
< 10,> 85,,"Cn1c(CN2CCC(c3cccc(OCc4ccc(C#N)cc4F)n3)CC2)nc2c(N)cc(C(=O)O)cc21 [Compound 115, 4-amino-2-((4-(6-((4-cyano-2-fluorobenzyl)oxy)pyridin-2-yl)piperidin-1-yl)methyl)-1-methyl-1H-benzo[d]imidazole-6-carboxylic acid]"
10 to 100,,++++ (Emax is >85%),"Cn1c(CN2CCC(c3cccc(OCc4ccc(Cl)cc4F)n3)CC2)nc2c(OC(F)CF)cc(C(=O)O)cc21 (single isomer, unassigned) [Compound 330]"
< 10,> 85,,"CCOc1cc(C(=O)O)cc2c1nc(CN1CCC(Oc3cccc(COc4ccc(C#N)cc4F)n3)CC1)n2C [Compound 290, 2-((4-((6-((4-Cyano-2-fluorophenoxy)methyl)pyridin-2-yl)oxy)piperidin-1-yl)methyl)-4-ethoxy-1-methyl-1H-benzo[d]imidazole-6-carboxylic acid]"
10 to 100,> 85,,"COc1cc(C(=O)O)cc2c1nc([C@H](C)N1CCC(c3cccc4c3O[C@@](C)(c3ccc(Cl)cn3)O4)CC1)n2C [Compound 96, 2-((S)-1-(4-((S)-2-(5-Chloropyridin-2-yl)-2-methylbenzo[d][1,3]dioxol-4-yl)piperidin-1-yl)ethyl)-4-methoxy-1-methyl-1H-benzo[d]imidazole-6-carboxylic acid]"
100 to 1000,> 85,,"Cn1c(CN2CCC(c3cccc(OCc4ccc(C#N)cc4F)n3)CC2)nc2c3c(c(C(=O)O)cc21)OCCO3 [Compound 289, 2-((4-(6-((4-Cyano-2-fluorobenzyl)oxy)pyridin-2-yl)piperidin-1-yl)methyl)-3-methyl-7,8-dihydro-3H-[1,4]dioxino[2′,3′:3,4]benzo[1,2-d]imidazole-5-carboxylic acid]"
< 10,> 85,,"Cn1c(CN2CCC(c3cccc(OCc4ccc(Cl)cc4F)n3)CC2)nc2c(OCC3CC3)cc(C(=O)O)cc21 [Compound 357, 2-((4-(6-((4-Chloro-2-fluorobenzyl)oxy)pyridin-2-yl)piperidin-1-yl)methyl)-4-(cyclopropylmethoxy)-1-methyl-1H-benzo[d]imidazole-6-carboxylic acid]"
